Earlier results in patent US11452751B2, “Medication dispensing system” (priority 2015, dated 2022).

Key:
[1] = tested on: cannabinoid receptors
[2] = tested on: estrogen receptor-positive and estrogen receptor-negative breast cancer cell lines; settings: inducing apoptosis in a concentration-dependent manner
[3] = tested on: nontumorigenic mammary cells
[4] = tested on: prostate cell line, PC-3; settings: Ruiz et al. 1999
[5] = biological target: T1, androgen receptor in the prostate gland (Homo sapiens, UniProt P10275)
T1 construct: host or cells: prostate gland
T1 sequence (P10275 1-920): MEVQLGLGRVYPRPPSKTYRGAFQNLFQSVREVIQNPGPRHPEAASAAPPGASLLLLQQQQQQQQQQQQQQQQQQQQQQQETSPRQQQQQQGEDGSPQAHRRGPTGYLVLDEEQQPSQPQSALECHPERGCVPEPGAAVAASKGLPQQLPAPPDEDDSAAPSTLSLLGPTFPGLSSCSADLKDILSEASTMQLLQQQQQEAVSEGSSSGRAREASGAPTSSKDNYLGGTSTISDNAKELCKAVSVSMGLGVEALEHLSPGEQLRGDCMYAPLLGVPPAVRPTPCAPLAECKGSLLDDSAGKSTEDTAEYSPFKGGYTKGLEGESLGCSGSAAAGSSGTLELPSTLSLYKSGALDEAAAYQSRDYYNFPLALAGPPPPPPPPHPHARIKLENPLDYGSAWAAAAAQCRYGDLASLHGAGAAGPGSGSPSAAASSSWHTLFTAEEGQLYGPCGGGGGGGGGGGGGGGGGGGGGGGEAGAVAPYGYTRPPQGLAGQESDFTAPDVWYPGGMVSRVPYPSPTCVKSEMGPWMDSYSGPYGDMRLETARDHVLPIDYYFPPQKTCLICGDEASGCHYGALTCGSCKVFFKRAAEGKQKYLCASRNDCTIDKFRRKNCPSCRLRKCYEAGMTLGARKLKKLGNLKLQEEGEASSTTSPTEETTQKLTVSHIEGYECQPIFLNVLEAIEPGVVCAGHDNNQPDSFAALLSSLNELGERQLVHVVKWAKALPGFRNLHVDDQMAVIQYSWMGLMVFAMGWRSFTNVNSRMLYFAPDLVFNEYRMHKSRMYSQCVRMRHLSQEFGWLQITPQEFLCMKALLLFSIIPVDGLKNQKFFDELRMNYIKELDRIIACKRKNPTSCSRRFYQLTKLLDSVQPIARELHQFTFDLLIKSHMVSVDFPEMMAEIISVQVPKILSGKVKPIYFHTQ

[6] = biological target: CB1 receptor (Homo sapiens, UniProt P21554)
CB1 receptor, sequence (P21554 whole entry): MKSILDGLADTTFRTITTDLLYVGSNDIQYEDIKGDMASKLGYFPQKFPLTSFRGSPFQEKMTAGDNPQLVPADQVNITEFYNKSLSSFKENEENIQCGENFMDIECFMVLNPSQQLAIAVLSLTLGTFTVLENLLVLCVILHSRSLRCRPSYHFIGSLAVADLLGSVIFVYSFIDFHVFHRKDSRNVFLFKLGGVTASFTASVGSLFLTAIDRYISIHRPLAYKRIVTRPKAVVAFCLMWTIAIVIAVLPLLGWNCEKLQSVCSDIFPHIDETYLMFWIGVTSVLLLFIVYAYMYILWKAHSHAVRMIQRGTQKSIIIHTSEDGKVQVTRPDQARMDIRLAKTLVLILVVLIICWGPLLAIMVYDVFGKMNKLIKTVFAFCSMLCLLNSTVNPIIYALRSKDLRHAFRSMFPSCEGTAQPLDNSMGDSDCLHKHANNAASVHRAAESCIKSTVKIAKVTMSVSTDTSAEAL

[7] = not given; remark: listed apart in the source

C=C(C)[C@@H]1CCC(C)=C[C@H]1c1c(O)cc(CCCCC)cc1O [CBD, Cannabidiol]
affinity to cannabinoid receptors [1]: low affinity | survival of breast cancer cell lines [2]: inhibited the survival | effect on nontumorigenic mammary cells [3]: little effect

CCCCCc1cc(O)c2c(c1)OC(C)(C)[C@@H]1CCC(C)=C[C@@H]21 [THC, Tetrahydrocannabinol]
pain sensitivity (cold-pressor test after administration, dronabinol oral capsules 10 mg or 20 mg): decreased pain sensitivity | duration of effects (compared with smoked marijuana): lasted longer than smoked marijuana | time after administration at which pain reduction effects were felt (on the average, cold-pressor test): 180 min | apoptosis [4]: causes apoptosis | specific binding of dihydroxytestosterone to the androgen receptor [5]: inhibits specific binding

CCCc1cc(O)c2c(c1)OC(C)(C)[C@@H]1CCC(C)=C[C@@H]21 [THCV, Tetrahydrocannabivarin]
mode of action at CB1 receptor [6]: CB1 receptor antagonist

vitamin E
reduction in breast cancer incidence ([7]; pre-menopausal women with a family history of breast cancer, highest quantity of vitamin E consumed): 43% | risk reduction of breast cancer ([7]; women without a family history of breast cancer): 16%
